From patent US20240199647A1, “ANTI-VIRAL COMPOUNDS” (Aligos Therapeutics, Inc., priority 2022, published 2024)
Where two headings read alike, the source gives them in different places.

Columns and labels:
[1] = tested on: human beta-coronavirus OC43; assay: OC43 Coronavirus Assay in HeLa cells (antiviral, cytopathic effect, cell-titer-glo); type: cell-based; settings: Betacoronavirus 1, OC43, HeLa, Table B, OC43 coronavirus in HeLa cells, read-out: EC50
[2] = tested on: SARS-CoV-2 B.1.1.7 lineage; assay: microbe, parasite or virus in culture; type: cell-based
[3] = Cytotoxicity in HeLa cells without addition of OC43 virus (in parallel); settings: human, HeLa cells, without OC43 virus
in vitro = settings: human
SARS-Cov-2 3CLpro = SARS-Cov-2 3CLpro (Severe acute respiratory syndrome coronavirus 2, UniProt P0DTD1); assay: biochemical; settings: Table A, read-out: SARS-Cov-2 (IC50)
[4] = Severe acute respiratory syndrome coronavirus 2, Table C, SARS-CoV-2 B.1.1.7 in A549-dual_ACE2_TMPRSS2 cells, cells given as a bound, read-out: A549-dual_ACE2_TMPRSS2 (EC50)
[5] = Severe acute respiratory syndrome coronavirus 2, Table C, SARS-CoV-2 B.1.1.7 in A549-dual_ACE2_TMPRSS2 cells, class symbols, read-out: A549-dual_ACE2_TMPRSS2 (EC50)

Structure (SMILES)	EC50 ([1]; cells given as a bound) [µM]	EC50 [2, 4] [µM]	CC50 at 6 days [3] [µM]	CC50 (in vitro) [µM]	IC50 (SARS-Cov-2 3CLpro; class symbols) [µM]	EC50 ([1]; class symbols) [µM]	EC50 [2, 5] [µM]	EC50 ([2]; Severe acute respiratory syndrome coronavirus 2, read-out: A549-dual_ACE2_TMPRSS2 (EC50)) [µM]	IC50 (SARS-Cov-2 3CLpro; cells given as a bound) [µM]
Cc1nnn(C(CC2CC2)C(=O)N(C)[C@@H](CC2CC2)C(=O)N2C[C@@]3(C[C@H]2C#N)Oc2cc(F)cc(F)c2NC3=O)c1C (relative stereo) [Compound 117, (S*)—N—((S)-1-((2R,5'S)-5′-cyano-5,7-difluoro-3-oxo-3,4-dihydrospiro[benzo[b][1,4]oxazine-2,3′-pyrrolidin]-1′-yl)-3-cyclopropyl-1-oxopropan-2-yl)-3-cyclopropyl-2-(4,5-dimethyl-1H-1,2,3-triazol-1-yl)-N-methylpropanamide]	> 10	> 1	> 10	> 1	0.2 to 2	–	–	–	–
CN(C(=O)[C@H](CC1CC1)NC(=O)C(F)(F)F)[C@@H](CC1CC1)C(=O)N1C[C@]2(C[C@H]1C#N)C(=O)NCc1ccccc12 (single isomer, unassigned) [Compound 122]	–	–	> 10	> 1	< 0.02	< 0.1	< 0.1	–	–
CC1NC(=O)[C@]2(C[C@@H](C#N)N(C(=O)[C@H](CC3CC3)N(C)C(=O)[C@H](CC3CC3)NC(=O)C(F)(F)F)C2)Oc2ccccc21 (single isomer, unassigned) [Compound 223, (S)—N—((S)-1-((2R,5S*,5'S)-5′-cyano-5-methyl-3-oxo-4,5-dihydro-3H-spiro[benzo[f][1,4]oxazepine-2,3′-pyrrolidin]-1′-yl)-3-cyclopropyl-1-oxopropan-2-yl)-3-cyclopropyl-N-methyl-2-(2,2,2-trifluoroacetamido)propanamide]	–	–	> 10	–	0.02 to 0.2	0.1 to 1	–	–	–
CN(C(=O)[C@H](CC1CC1)NC(=O)C(F)(F)F)[C@@H](CC1CC1)C(=O)N1C[C@@]2(C[C@H]1C#N)Oc1cc(F)cc(C#N)c1NC2=O (single isomer, unassigned) [Example 35]	–	–	> 10	> 1	0.02 to 0.2	1 to 10	0.1 to 1	–	–
CN(C(=O)[C@H](CC1CC1)NC(=O)C(F)(F)F)C(CC1CC1)C(=O)N1C[C@@]2(C[C@H]1C#N)Oc1cc(S(C)(=O)=O)ccc1NC2=O (stereo in doubt) [Compound 110, (S)—N—((S)-1-((2R,5'S)-5′-cyano-7-(methylsulfonyl)-3-oxo-3,4-dihydrospiro[benzo[b][1,4]oxazine-2,3′-pyrrolidin]-1′-yl)-3-cyclopropyl-1-oxopropan-2-yl)-3-cyclopropyl-N-methyl-2-(2,2,2-trifluoroacetamido)propanamide]	–	> 1	> 10	> 1	< 0.02	< 0.1	–	–	–
CC(C)CC(C(=O)N1C[C@]2(C[C@H]1C#N)C(=O)Nc1c3c(nn12)CCCC3)N(C)C(=O)[C@H](C)NC(=O)C(F)(F)F (stereo in doubt) [Example 28, (2S)—N-[(2S)-1-[(3R,5'S)-5′-cyano-2-oxo-6,7,8,9-tetrahydro-1H-spiro[imidazo[1,2-b]indazole-3,3′-pyrrolidin]-1′-yl]-4-methyl-1-oxopentan-2-yl]-N-methyl-2-(2,2,2-trifluoroacetamido)propanamide]	–	> 1	> 10	> 1	< 0.02	< 0.1	–	–	–
CN(C(=O)[C@H](CC1CC1)NC(=O)C(F)(F)F)C(CC1CC1)C(=O)N1C[C@]2(Cc3ccccc3NC2=O)C[C@H]1C#N (stereo in doubt) [Example 33, (S)—N—((S)-1-((3S,5S)-5-cyano-2′-oxo-1′,4′-dihydro-2′H-spiro[pyrrolidine-3,3′-quinolin]-1-yl)-3-cyclopropyl-1-oxopropan-2-yl)-3-cyclopropyl-N-methyl-2-(2,2,2-trifluoroacetamido)propanamide]	–	–	> 10	> 1	< 0.02	0.1 to 1	< 0.1	–	–
CC(C)C[C@@H](C(=O)N1C[C@]2(CCNC2=O)C[C@H]1C#N)N(C)C(=O)[C@H](C)NC(=O)C(F)(F)F [Compound 8, (S)—N—((S)-1-((3S,5S)-3-cyano-6-oxo-2,7-diazaspiro[4.4]nonan-2-yl)-4-methyl-1-oxopentan-2-yl)-N-methyl-2-(2,2,2-trifluoroacetamido)propanamide]	–	–	> 10	> 1	0.02 to 0.2	1 to 10	1 to 10	–	–
CC(C)C[C@@H](C(=O)N1C[C@]2(CCCNC2=O)C[C@H]1C#N)N(C)C(=O)[C@H](C)NC(=O)C(F)(F)F [Compound 11]	–	–	> 10	> 1	0.02 to 0.2	1 to 10	0.1 to 1	–	–
CC(C)C[C@@H](C(=O)N1C[C@@]2(C[C@H]1C#N)N=C(c1ccccc1)NC2=O)N(C)C(=O)[C@H](C)NC(=O)C(F)(F)F [Compound 12, (2S)—N-[(2S)-1-[(5R,8S)-8-cyano-4-oxo-2-phenyl-1,3,7-triazaspiro[4.4]non-1-en-7-yl]-4-methyl-1-oxopentan-2-yl]-N-methyl-2-(2,2,2-trifluoroacetamido)propanamide]	–	–	> 10	> 1	0.02 to 0.2	1 to 10	1 to 10	–	–
CC(C)C[C@@H](C(=O)N1C[C@@]2(C[C@H]1C#N)CC1(CC1)NC2=O)N(C)C(=O)[C@H](C)NC(=O)C(F)(F)F [Compound 13, (S)—N—((S)-1-((5R,8S)-8-cyano-10-oxo-7,11-diazadispiro[2.1.4^5.2^3]undecan-7-yl)-4-methyl-1-oxopentan-2-yl)-N-methyl-2-(2,2,2-trifluoroacetamido)propanamide]	–	–	> 10	> 1	< 0.02	0.1 to 1	–	0.1 to 1	–
CN(C(=O)[C@H](CC1CC1)NC(=O)C(F)(F)F)[C@@H](CC1CC1)C(=O)N1C[C@@]2(C[C@H]1C#N)Oc1ccc(F)cc1NC2=O [Compound 15, (S)—N—((S)-1-((2R,5'S)-5′-cyano-6-fluoro-3-oxo-3,4-dihydrospiro[benzo[b][1,4]oxazine-2,3′-pyrrolidin]-1′-yl)-3-cyclopropyl-1-oxopropan-2-yl)-3-cyclopropyl-N-methyl-2-(2,2,2-trifluoroacetamido)propanamide]	–	–	> 10	> 1	< 0.02	< 0.1	< 0.1	–	–
COC(=O)N[C@@H](CC1CC1)C(=O)N(C)[C@@H](CC1CC1)C(=O)N1C[C@@]2(C[C@H]1C#N)Oc1cc(F)cc(F)c1NC2=O [Compound 75]	> 10	–	> 10	> 1	–	–	< 0.1	–	–
CN(C(=O)[C@H](CC1CC1)NC(=O)C1(F)CC1)[C@@H](CC1CC1)C(=O)N1C[C@@]2(C[C@H]1C#N)Oc1cc(F)cc(F)c1NC2=O [Compound 76]	–	–	> 10	> 1	–	< 0.1	< 0.1	–	–
CN(C(=O)[C@H](CC1CC1)NC(=O)c1ccc(F)cc1)[C@@H](CC1CC1)C(=O)N1C[C@@]2(C[C@H]1C#N)Oc1cc(F)cc(F)c1NC2=O [Compound 77]	–	–	> 10	> 1	–	< 0.1	< 0.1	–	–
N#C[C@@H]1C[C@]2(CN1C(=O)[C@H](CC1CC1)NC(=O)[C@H](CC1CC1)NC(=O)C(F)(F)F)Oc1cc(F)cc(F)c1NC2=O [Compound 78]	–	–	> 10	> 1	–	0.1 to 1	0.1 to 1	–	–
CN(C(=O)c1cnn(-c2ccccc2C(F)(F)F)c1)[C@@H](CC1CC1)C(=O)N1C[C@@]2(C[C@H]1C#N)Oc1cc(F)cc(F)c1NC2=O [Compound 79]	–	–	> 10	> 1	–	< 0.1	0.1 to 1	–	–
CC(C)C[C@@H](C(=O)N1C[C@]2(C[C@H]1C#N)C(=O)Nc1ccccc1C2(C)O)N(C)C(=O)[C@H](C)NC(=O)C(F)(F)F (stereo partly shown) [Compound 80]	–	–	> 10	–	0.2 to 2	< 0.1	–	–	–
CN(C(=O)[C@H](CC1CC1)NC(=O)C(F)(F)F)[C@@H](CC1CC1)C(=O)N1C[C@@]2(C[C@H]1C#N)Oc1ncccc1NC2=O [Compound 91]	–	–	> 10	–	< 0.02	< 0.1	–	–	–
COc1cccc2[nH]c(C(=O)N(C)[C@@H](CC3CC3)C(=O)N3C[C@@]4(C[C@H]3C#N)Oc3cc(F)cc(F)c3NC4=O)cc12 [Compound 134]	> 10	> 1	–	> 1	< 0.02	–	–	–	–
CN(C(=O)[C@H](CCCCN)NC(=O)C(F)(F)F)[C@@H](CC1CC1)C(=O)N1C[C@@]2(C[C@H]1C#N)Oc1cccnc1NC2=O [Compound 221]	> 10	–	> 10	–	< 0.02	–	–	–	–
C[C@H](Nc1ncnc2ccccc12)C(=O)N(C)[C@@H](CC1CC1)C(=O)N1C[C@@]2(C[C@H]1C#N)Oc1cccnc1NC2=O [Compound 230]	–	–	> 10	–	< 0.02	0.1 to 1	–	–	–
CN(C(=O)c1ccc(=O)[nH]n1)[C@@H](CC1CC1)C(=O)N1C[C@@]2(C[C@H]1C#N)Oc1cccnc1NC2=O [Compound 231]	> 10	–	> 10	–	–	–	–	–	> 2
Cc1ccc(C(=O)N(C)[C@@H](CC2CC2)C(=O)N2C[C@@]3(C[C@H]2C#N)Oc2cccnc2NC3=O)[nH]c1=O [Compound 232]	> 10	–	> 10	–	0.2 to 2	–	–	–	–
